Here are results for two compounds from patent US12225917B2 (priority 2017, dated 2025).

Where two headings read alike, the source gives them in different places.

In one assay the test system is Clostridium Difficile. The assay is described as follows: In vitro MIC and MBC against Clostridium difficile (Example 6). The class given is cell-based.
A short description of assay [1]: Feed palatability, feed and water consumption and bird productivity study (Example 2): feed intake, water intake, bodyweight, FCR. The assay is classed as in vivo, broiler chickens. The source says: A follow-up study to determine the feed palatability, feed and water consumption and bird productivity following incorporation of a single formulation of IRP001 hemisulfate salt (unmasked) when offered to broiler chickens in-feed or in-water. The study explores the optimal treatment regime in terms of treatment start date.
Phase 1: On receipt, two hundred and seventy (270) day-old commercial broiler chickens were allocated sequentially as they are received into sixteen (16) individual floor pens, each of 16 or 17 birds, on Day 0.
Phase 2: On receipt, the ninety (90) day-old commercial broiler chickens were allocated sequentially as they are received into four (4) individual floor pens, each of 22 or 23 birds, on Day 22.
Feed intake, water intake, weight gain and mortality were used as outcome parameters.
Individual daily feed intake and individual daily water intake data by pen and then by treatment group were calculated for Phases 1 and 2 (and for the entire trial for the birds in Group/Pen 2, 15 and 16 that continue through both Phases) using figures for total feed and water provided each day to each pen divided by the number of birds in each pen. Where errors in weighing, feeding/watering or recording (or other unexplained losses of feed and water) had occurred means were adjusted by using the mean value for the same pen on the 1-2 days either side of the apparent error. Similarly, group mean bodyweights were calculated for Phase 1 using total weight/total no. birds for Day 0 and individual weights from Days 7, 14, 21, 28, 35 and 42. Total (individual) feed consumed was calculated per treatment and feed conversion ratios per treatment calculated using the expression: total (individual) feed/total (individual) weight gain. […]

The subject of assay [2] is Clostridium Perfringens (type A strain EHE-NE36). Conditions: NE challenged broilers; for median lesion scores: relative to nil-treatment; for small intestinal lesion scores: relative to nil treatment groups.

For `CN[C@H](CC(C)C)C(=O)N[C@H]1C(=O)N[C@@H](CC(N)=O)C(=O)N[C@H]2C(=O)N[C@H]3C(=O)N[C@H](C(=O)N[C@H](C(=O)O)c4cc(O)cc(O)c4-c4cc3ccc4O)[C@H](O)c3ccc(c(Cl)c3)Oc3cc2cc(c3O[C@@H]2O[C@H](CO)[C@@H](O)[C@H](O)[C@H]2O[C@H]2C[C@](C)(N)[C@H](O)[C@H](C)O2)Oc2ccc(cc2Cl)[C@H]1O` [Vancomycin, reference compound], the MIC entry in the assay on Clostridium Difficile and in the assay with Clostridium Perfringens was “within the expected range” throughout.
For the compound berberine hemisulfate [IRP001 sulfate], the “inhibition of growth at 62.5 μg/ml” value with Clostridium Perfringens (Necrotic Enteritis strain of C. perfringens, 62.5 μg/ml) is recorded as “partial inhibition of growth”. The MIC with Clostridium Perfringens (Necrotic Enteritis strain of C. perfringens, test agent Berberine sulfate, purity 98.0%) stood at 125 µg/mL. The bodyweight entry is “no significant difference” in assay [1] (Phase 1+2, Pen 2 untreated vs 15/16 treated in-water Day 6-42, pair-wise comparison p<0.05); “did not appear to affect” in assay [1] (Phase 1, unmasked treatment via drinking water (1.0 g per L) over varying periods); “did not appear to affect” in assay [1] (Phase 2, treatment in-feed (2.0 g per kg of feed)). Besides, the median lesion scores entry in assay [2] (0.1 g/L in-water) and in assay [2] (0.2 g/kg in-feed) was “no reduction in median lesion scores” in each case. Further, the “Mortalities prior to autopsy” value in assay [2] (0.1 g/L in-water, versus nil-treatment) is “not significantly different”; in assay [2] (0.2 g/kg in-feed, versus nil-treatment), “not significantly different”; in assay [2] (1.0 g/L in-water, relative to nil-treatment and low-dose groups) it was “significant reduction in mortalities”; in assay [2] (2.0 g/kg in-feed, relative to nil-treatment and low-dose groups), “significant reduction in mortalities”. For the same compound, the “small intestinal lesion scores” value in assay [2] (1.0 g/L in-water) and in assay [2] (2.0 g/kg in-feed) was “substantial reduction in small intestinal lesion scores” in each case.
